# Laboratory results from patent US10017527B2, “KLK4 inhibitors” (Universiteit Antwerpen, priority 2014, dated 2018).
# Read-outs that look alike come from different tables or passages of the source.
# Tests used:
# Assay type in all cases: biochemical
# KLK8 (human) = biological target: T1, KLK8 (human) (Homo sapiens, UniProt O60259); test: KLK8 inhibition, fluorogenic substrate Boc-Val-Pro-Arg-AMC
# T1 construct: purchased Viktor Magdolen, TUMunich (TUM), supplied by an academic laboratory
# T1 sequence (O60259 33-260): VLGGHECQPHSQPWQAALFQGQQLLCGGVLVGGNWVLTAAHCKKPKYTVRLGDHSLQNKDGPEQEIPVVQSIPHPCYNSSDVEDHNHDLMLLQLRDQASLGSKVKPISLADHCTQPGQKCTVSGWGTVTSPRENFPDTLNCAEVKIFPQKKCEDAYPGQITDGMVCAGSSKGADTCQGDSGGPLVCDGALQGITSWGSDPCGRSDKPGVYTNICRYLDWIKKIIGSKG
# Excerpt: (§1) The IC50 values For KLK1, KLK2 and KLK8 were obtained in a similar way. For plasmin, tPA, thrombin, Fxa, HNE, Plasma kallikrein Chromogenic substrates were used (absorption: 405 nm). (KLK2, KLK4, KLK8 were supplied by Viktor Magdolen TUMunich (TUM)).
# KLK4 [1] = biological target: T2, KLK4 (Homo sapiens, UniProt Q9Y5K2); test: KLK4 enzymatic inhibition, fluorogenic substrate Boc-Val-Pro-Arg-AMC
# T2 construct: purchased Viktor Magdolen (TUM), supplied by an academic laboratory
# Method: The substrate was obtained form Bachem and the enzyme was provided by Viktor Magdolen (TUM). The reaction was monitored with an excitation wavelength of 355 nm and emission wavelength of 460 nm. The initial rate was determined between 2500000 and 4500000 mRFU/min. The reaction mixture contained 25 μM substrate and approximately 1 mU of enzyme in 145 μL of buffer in a final volume of […]. A 50 mM Tris buffer, pH 8.3, was used. From each inhibitor concentration, 5 μL was added, obtaining a final concentration from 0 to 250 μM in a total volume of 0.2 mL. Activity measurements were routinely performed in duplicate. […] IC50 values were obtained by fitting the data with the four-parameter logistics equation using Grafit 7.
# [formula] where s=slope factor, v=rate, I0=inhibitor concentration, and range=the fitted uninhibited value minus the background. The equation assumes they falls with increasing x.
# (§2) Inhibitor stock solutions were prepared in DMSO and stored at −20° C. Because the compounds described in this paper completely inactivate KLK4 following pseudo first-order kinetics, the IC50 value is inversely correlated with the second-order rate constant of inactivation. For a simple pseudo first-order inactivation process, the activity after incubation with inhibitor (vi) varies with the inhibitor concentration (i), as described in the following equation: vi=v0×e^−k t, where vo is the activity in absence of inhibitor, k is the second-order rate constant of inactivation, and t is the time. The inactivation rate constant was determined from the time course of inhibition.
# uPA (recombinant) = biological target: T3, uPA (recombinant) (Homo sapiens, UniProt P00749); test: uPA inhibition, chromogenic substrate Biophen CS-61(44)
# T3 construct: purchased Nodia
# Matriptase = biological target: T4, Matriptase (Homo sapiens, UniProt Q9Y5Y6); test: Matriptase inhibition
# T4 sequence (Q9Y5Y6 1-855): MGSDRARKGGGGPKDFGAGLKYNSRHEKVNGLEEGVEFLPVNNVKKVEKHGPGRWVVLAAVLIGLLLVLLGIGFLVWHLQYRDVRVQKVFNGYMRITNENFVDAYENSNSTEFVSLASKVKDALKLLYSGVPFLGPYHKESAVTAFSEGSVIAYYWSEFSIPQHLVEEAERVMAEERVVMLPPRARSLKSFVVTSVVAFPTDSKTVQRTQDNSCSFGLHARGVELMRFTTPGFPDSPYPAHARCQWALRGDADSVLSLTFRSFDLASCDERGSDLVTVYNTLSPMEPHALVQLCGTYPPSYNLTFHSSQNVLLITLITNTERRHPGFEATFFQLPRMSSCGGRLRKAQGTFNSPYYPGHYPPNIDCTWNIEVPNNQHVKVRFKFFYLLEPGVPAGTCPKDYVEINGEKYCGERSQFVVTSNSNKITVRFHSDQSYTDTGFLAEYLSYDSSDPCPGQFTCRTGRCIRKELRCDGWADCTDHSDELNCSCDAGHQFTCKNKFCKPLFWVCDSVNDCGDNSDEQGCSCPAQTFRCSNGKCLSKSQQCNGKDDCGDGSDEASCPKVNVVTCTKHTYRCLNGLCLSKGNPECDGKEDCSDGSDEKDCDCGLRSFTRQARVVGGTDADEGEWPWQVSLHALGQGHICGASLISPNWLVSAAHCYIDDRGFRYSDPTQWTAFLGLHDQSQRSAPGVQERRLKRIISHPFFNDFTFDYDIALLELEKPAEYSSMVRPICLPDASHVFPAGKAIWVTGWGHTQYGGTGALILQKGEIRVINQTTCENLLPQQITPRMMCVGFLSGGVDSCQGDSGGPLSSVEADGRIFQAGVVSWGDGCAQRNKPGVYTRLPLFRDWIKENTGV
# KLK2 (human) = biological target: T5, KLK2 (human) (Homo sapiens, UniProt P20151); test: KLK2 inhibition, fluorogenic substrate H-Pro-Phe-Arg-AMC
# T5 construct: purchased Viktor Magdolen, TUMunich (TUM), supplied by an academic laboratory
# Excerpt: as §1
# KLK1 (human) = biological target: T6, KLK1 (human) (Homo sapiens, UniProt P06870); test: KLK1 inhibition, fluorogenic substrate H-Pro-Phe-Arg-AMC
# T6 construct: purchased Prospec
# Excerpt: as §1
# Plasmine (human plasma) = biological target: T7, Plasmine (human plasma) (Homo sapiens, UniProt P00747); test: Plasmin inhibition, chromogenic substrate Biophen CS-21(66)
# T7 construct: purchased Sigma-Aldrich; host or cells: human plasma
# Excerpt: as §1
# KLK4 [2] = biological target: T2, KLK4; test: KLK4 inactivation kinetics from progress curves (kobs vs inhibitor concentration)
# Method: as §2
# The inhibitor was mixed with the substrate (250 μM final concentration), and the buffer solution with the enzyme was added at the time zero. […] The progress curves show the absorbance of aminomethylcoumarine produced as a function of time. Initially, no inhibitor is bound to the enzyme, and the tangent to the progress curve (dA/dt) is proportional to the concentration of the free enzyme. The concentration of free enzyme decreases over time due to the kinetics of inhibitor binding, as described above. Progress curves were recorded in pseudo first-order conditions ([I]0>>[E]0) and with less than 10% conversion of the substrate during the entire time course. In these conditions, dA/dt decreases exponentially with time. The progress curves were fitted with the integrated rate equation to yield a value for kobs, a pseudofirst-order rate constant At=v0[1−e^−k^obs^t]/kobs+A0 where At=absorbance at time t, A0=absorbance at time zero, and v0=uninhibited initial rate.
# The apparent second-order rate constant (kapp) was calculated from the slope of the linear part of the plot of kobs versus the inhibitor concentration ([I]0). In case of competition between the inhibitor and the substrate, kapp is smaller than the “real” second order rate constant k discussed above because a certain fraction of the enzyme is present as an enzyme-substrate complex. kapp depends on the substrate concentration used in the experiment, as described by Lambeir et al. (Lambeir, Borloo et al. 1996).
# tPA (recombinant) = biological target: T8, tPA (recombinant) (Homo sapiens, UniProt P00750); test: tPA inhibition, chromogenic substrate Biophen CS-05(88); conditions: Tris buffer pH 8.3; read-out: IC50 tPA
# T8 construct: purchased Nodia
# Excerpt: as §1
# FXa = biological target: T9, FXa (Homo sapiens, UniProt P00742); test: FXa inhibition, chromogenic substrate Biophen CS-11(32); conditions: Tris buffer pH 8.3; read-out: IC50 FXa
# T9 construct: purchased Nodia
# Excerpt: as §1
# PlasmaKLK (human plasma) = biological target: T10, PlasmaKLK (human plasma) (Homo sapiens, UniProt P03952); test: Plasma kallikrein inhibition, chromogenic substrate Biophen CS-31(02); conditions: Plasma KLK; Tris buffer pH 7.8; read-out: IC50 pKLK
# T10 construct: purchased Sigma-Aldrich; host or cells: human plasma
# Excerpt: as §1
# Thrombine (human plasma) = biological target: T11, Thrombine (human plasma) (Homo sapiens, UniProt P00734); test: Thrombin inhibition, chromogenic substrate Biophen CS-21(66); conditions: Thrombin; Tris buffer pH 8.3; read-out: IC50 THR
# T11 construct: purchased Sigma-Aldrich; host or cells: human plasma
# T5 sequence (P20151 25-261): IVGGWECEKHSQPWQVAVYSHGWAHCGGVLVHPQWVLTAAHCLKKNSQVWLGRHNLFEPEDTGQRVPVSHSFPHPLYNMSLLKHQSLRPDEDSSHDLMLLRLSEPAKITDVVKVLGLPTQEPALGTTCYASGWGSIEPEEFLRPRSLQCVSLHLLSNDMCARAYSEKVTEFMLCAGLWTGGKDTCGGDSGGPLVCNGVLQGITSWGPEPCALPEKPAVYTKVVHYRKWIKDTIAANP
# T6 sequence (P06870 25-262): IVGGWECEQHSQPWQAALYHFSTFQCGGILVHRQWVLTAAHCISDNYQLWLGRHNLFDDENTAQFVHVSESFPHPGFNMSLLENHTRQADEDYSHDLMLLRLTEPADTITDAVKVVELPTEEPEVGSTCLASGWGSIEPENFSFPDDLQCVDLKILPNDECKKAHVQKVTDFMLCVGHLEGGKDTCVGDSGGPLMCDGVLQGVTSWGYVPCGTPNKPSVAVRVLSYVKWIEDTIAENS
# T2 sequence (Q9Y5K2 31-254): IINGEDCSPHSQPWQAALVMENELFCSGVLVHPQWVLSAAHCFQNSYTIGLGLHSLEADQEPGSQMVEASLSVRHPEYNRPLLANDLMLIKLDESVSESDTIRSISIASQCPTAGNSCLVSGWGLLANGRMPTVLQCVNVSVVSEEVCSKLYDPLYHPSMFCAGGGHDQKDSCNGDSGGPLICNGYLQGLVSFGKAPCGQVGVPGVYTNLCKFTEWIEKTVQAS
# T7 sequence (P00747 581-810 limits assumed): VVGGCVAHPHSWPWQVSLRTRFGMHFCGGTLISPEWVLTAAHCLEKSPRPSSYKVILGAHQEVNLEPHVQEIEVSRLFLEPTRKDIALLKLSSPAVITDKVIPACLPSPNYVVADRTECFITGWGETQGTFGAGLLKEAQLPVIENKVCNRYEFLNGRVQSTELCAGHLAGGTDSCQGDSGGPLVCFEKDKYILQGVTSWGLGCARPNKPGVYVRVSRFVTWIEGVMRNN
# T7 sequence (P00747 98-580 partner limits assumed): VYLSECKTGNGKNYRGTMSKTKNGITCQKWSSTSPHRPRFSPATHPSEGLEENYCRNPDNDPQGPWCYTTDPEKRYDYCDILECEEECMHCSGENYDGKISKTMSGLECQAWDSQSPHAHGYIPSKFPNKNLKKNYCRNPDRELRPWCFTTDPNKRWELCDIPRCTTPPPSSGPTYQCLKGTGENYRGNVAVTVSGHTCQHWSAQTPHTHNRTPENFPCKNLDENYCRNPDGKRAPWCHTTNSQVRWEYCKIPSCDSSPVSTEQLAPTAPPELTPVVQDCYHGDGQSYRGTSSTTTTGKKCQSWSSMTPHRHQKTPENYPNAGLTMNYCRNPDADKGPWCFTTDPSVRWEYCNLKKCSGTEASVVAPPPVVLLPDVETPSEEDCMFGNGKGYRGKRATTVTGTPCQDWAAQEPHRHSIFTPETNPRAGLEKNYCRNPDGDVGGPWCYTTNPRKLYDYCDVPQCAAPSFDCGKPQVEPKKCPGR
# T8 sequence (P00750 36-562, species assumed): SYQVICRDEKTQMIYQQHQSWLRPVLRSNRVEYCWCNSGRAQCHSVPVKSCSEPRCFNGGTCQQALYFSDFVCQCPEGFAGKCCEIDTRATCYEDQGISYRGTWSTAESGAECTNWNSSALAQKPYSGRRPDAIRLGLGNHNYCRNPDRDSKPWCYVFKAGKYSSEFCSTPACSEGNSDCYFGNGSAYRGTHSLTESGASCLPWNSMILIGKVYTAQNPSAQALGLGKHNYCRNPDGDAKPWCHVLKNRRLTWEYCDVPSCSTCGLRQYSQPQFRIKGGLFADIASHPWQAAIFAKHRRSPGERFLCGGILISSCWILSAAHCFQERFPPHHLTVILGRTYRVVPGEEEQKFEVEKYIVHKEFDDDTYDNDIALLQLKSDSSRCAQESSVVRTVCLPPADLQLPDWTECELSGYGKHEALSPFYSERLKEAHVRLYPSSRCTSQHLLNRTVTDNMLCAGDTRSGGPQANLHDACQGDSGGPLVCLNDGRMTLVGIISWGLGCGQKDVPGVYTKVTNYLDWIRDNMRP
# T10 sequence (P03952 391-638 limits assumed): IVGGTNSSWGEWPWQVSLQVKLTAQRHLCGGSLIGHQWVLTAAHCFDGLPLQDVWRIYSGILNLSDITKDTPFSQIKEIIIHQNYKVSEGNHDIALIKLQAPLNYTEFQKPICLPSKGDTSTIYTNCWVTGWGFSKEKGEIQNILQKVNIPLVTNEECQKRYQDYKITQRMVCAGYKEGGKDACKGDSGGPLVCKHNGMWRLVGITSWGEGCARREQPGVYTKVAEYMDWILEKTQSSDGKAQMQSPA
# T10 sequence (P03952 20-390 partner limits assumed): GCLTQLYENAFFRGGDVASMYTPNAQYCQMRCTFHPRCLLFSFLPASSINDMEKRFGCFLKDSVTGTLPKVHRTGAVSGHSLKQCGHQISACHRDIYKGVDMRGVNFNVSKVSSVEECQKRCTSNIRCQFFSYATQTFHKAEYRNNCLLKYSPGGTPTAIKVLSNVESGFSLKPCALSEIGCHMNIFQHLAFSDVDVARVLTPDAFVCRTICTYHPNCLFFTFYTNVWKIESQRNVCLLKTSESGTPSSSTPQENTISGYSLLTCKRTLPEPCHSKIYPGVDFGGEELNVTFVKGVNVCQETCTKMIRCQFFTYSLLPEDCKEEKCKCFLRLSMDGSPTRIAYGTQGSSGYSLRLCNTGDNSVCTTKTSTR
# T9 sequence (P00742 235-488 limits assumed): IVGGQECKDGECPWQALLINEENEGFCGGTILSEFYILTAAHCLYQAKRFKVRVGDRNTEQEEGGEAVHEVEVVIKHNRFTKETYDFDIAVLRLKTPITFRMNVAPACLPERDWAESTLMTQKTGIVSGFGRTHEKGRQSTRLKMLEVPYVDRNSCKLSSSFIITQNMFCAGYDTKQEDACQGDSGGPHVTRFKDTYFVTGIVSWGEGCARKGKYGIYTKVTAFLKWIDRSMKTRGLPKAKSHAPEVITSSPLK
# T9 sequence (P00742 41-179 partner limits assumed): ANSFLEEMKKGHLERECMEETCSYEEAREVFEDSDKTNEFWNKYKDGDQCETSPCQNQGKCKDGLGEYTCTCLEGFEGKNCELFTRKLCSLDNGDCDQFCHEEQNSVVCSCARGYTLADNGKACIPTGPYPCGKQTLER
Structure (SMILES),IC50 (KLK8 (human)),IC50 (KLK4 [1]),IC50 (uPA (recombinant)),IC50 (Matriptase),IC50 (KLK2 (human)),IC50 (KLK1 (human)),IC50 (Plasmine (human plasma)),"kapp KLK4 (KLK4 [2]; apparent second-order rate constant, substrate 250 μM)","Irreversible (KLK4) (KLK4 [2]; irreversible binding to KLK4, Yes/No)",IC50 (tPA (recombinant)),IC50 (FXa),"IC50 (KLK4 [1]; 15 min pre-incubation at 37° C., Tris buffer pH 8.3, read-out: IC50 KLK4)","IC50 (uPA (recombinant); Tris buffer pH 8.8, read-out: IC50 uPA)","IC50 (Plasmine (human plasma); Plasmin, Tris buffer pH 7.4, read-out: IC50 PLM)",IC50 (PlasmaKLK (human plasma)),IC50 (Thrombine (human plasma))
"N=C(N)Nc1ccc(C(NC(=O)OCCCC(F)(F)F)P(=O)(Oc2ccccc2)Oc2ccccc2)cc1 (stereo not drawn) [Compound 107, 4,4,4-trifluorobutyl ((diphenoxyphosphoryl)(4-guanidinophenyl)methyl) carbamate]",2.5 to 10 µM,< 0.1 µM,2.5 to 10 µM,2.5 to 10 µM,0.1 to 1 µM,2.5 to 10 µM,10 to 250 µM,–,–,–,–,–,–,–,–,–
"CSCCOC(=O)NC(c1ccc(NC(=N)N)cc1)P(=O)(Oc1ccccc1)Oc1ccccc1 (stereo not drawn) [Compound 108, 2-(methylthio)ethyl ((diphenoxyphosphoryl)(4-guanidinophenyl)methyl) carbamate]",1 to 2.5 µM,< 0.1 µM,2.5 to 10 µM,2.5 to 10 µM,0.1 to 1 µM,1 to 2.5 µM,10 to 250 µM,–,–,–,–,–,–,–,–,–
"N=C(N)Nc1ccc(C(NC(=O)OCc2c(F)c(F)c(F)c(F)c2F)P(=O)(Oc2ccccc2)Oc2ccccc2)cc1 (stereo not drawn) [Compound 109, (perfluorophenyl)methyl ((diphenoxyphosphoryl)(4-guanidinophenyl)methyl) carbamate]",1 to 2.5 µM,< 0.1 µM,2.5 to 10 µM,1 to 2.5 µM,0.1 to 1 µM,0.1 to 1 µM,10 to 250 µM,–,–,–,–,–,–,–,–,–
"COCCOCCOCCOC(=O)NC(c1ccc(NC(=N)N)cc1)P(=O)(Oc1ccccc1)Oc1ccccc1 (stereo not drawn) [Compound 110, 2-(2-(2-methoxyethoxy)ethoxy)ethyl ((diphenoxyphosphoryl)(4-guanidinophenyl)methyl)carbamate]",1 to 2.5 µM,< 0.1 µM,2.5 to 10 µM,2.5 to 10 µM,–,2.5 to 10 µM,10 to 250 µM,19600 M⁻¹ s⁻¹,Yes/,–,–,–,–,–,–,–
"N=C(N)Nc1ccc(C(NS(=O)(=O)c2ccccc2)P(=O)(Oc2ccccc2)Oc2ccccc2)cc1 (stereo not drawn) [Compound 127, diphenyl ((4-guanidinophenyl)(phenylsulfonamido)methyl)phosphonate]",–,–,–,–,–,–,–,–,–,2.5 to 10 µM,2.5 to 10 µM,2.5 to 10 µM,2.5 to 10 µM,2.5 to 10 µM,2.5 to 10 µM,2.5 to 10 µM
